{"source": "paper PMC10149936", "about": "“Cofilin activation in pancreatic acinar cells plays a pivotal convergent role for mediating CCK-stimulated enzyme secretion and growth” (Frontiers in Physiology, 2023)", "key": {"[1]": {"test_system": "p44/42 MAPK in pancreatic acini", "assay": "p44/42 MAPK activation (pT202/Y204 Western blot) in pancreatic acini", "format": "cell-based", "details": "Rattus norvegicus, Cytochalasin D 10 µM or Paclitaxel 5 µM, 3 h, range", "description": "Pancreatic acini preparations were obtained by collagenase digestion as previously described ([Bissonnette et al., 1984]; [Sato et al., 1989]; [Ramos-Alvarez and Jensen, 2018]). […] Isolated acini and CCK1-R/Panc-1 cells (M&M 2.2.1) were also preincubated with two SSH1 inhibitors, D3 (25 μM, 1 h) ([Li et al., 2015]) or SE (50 μM, 3 h for acini; 24 h for CCK1-R/Panc-1 cells) ([Lee et al., 2017]). After preincubation, 1 mL aliquots of dispersed acini were incubated at 37°C for 3–15 min with CCK-8 (0.3 nM or 100 nM), for 5–15 min with TPA (1 µM) or without stimulants, used as control. Cells were lysed in lysis buffer (50 mM Tris/HCl pH 7.5, 150 mM NaCl, 1% Triton X-100, 1% deoxycholate, 0.1% sodium azide, 1 mM EGTA, 0.4 mM EDTA, 0.2 mM sodium orthovanadate, 1 mM PMSF, and one protease inhibitor tablet per 10 mL). After sonication, lysates were centrifuged at 10,000×g for 15 min at 4°C and protein concentration was measured using the Bio-Rad protein assay reagent. Finally, cells were processed as below for Western blotting.\nWestern blotting and immunoprecipitation were performed as described previously ([Ramos-Alvarez and Jensen, 2018]). Whole cell lysates were subjected to SDS-PAGE using 4%–20% Tris–Glycine gels. […] The intensity of the protein bands was measured using GeneTools software from Syngene, which were assessed in the linear detection range. […]"}, "epithelial cells": {"test_system": "epithelial cells", "details": "ref Matsubayashi et al., 2004; cited from earlier work"}, "[2]": {"test_system": "cofilin (pS3) in CCK1-R/Panc-1 cells", "assay": "cofilin activation (pS3 cofilin Western blot) in CCK1-R/Panc-1 cells", "format": "cell-based, human", "details": "CCK-8 0.3 and 100 nM, 5 min", "description": "CCK1 receptor transfected Panc-1 (CCK1-R/Panc-1) cells ([Berna et al., 2009]) and AR42J cells, were cultured in DMEM supplemented with 10% FBS and 1% penicillin/streptomycin and in RPMI supplemented with 10% FBS and 1% penicillin/streptomycin, respectively; and split 1:10 weekly with trypsin/EDTA, after washing in PBS. Finally, cells were seeded in 6-well plate and serum starved overnight, until they were 80% confluent. Cells were incubated at 37°C in 5% CO2/95% air. AR42J cells were treated with 100 nM dexamethasone for 72°h, which stimulates their differentiation into exocrine cells ([Logsdon, 1986]).\nPancreatic acini preparations were obtained by collagenase digestion as previously described ([Bissonnette et al., 1984]; [Sato et al., 1989]; [Ramos-Alvarez and Jensen, 2018]). […] Isolated acini and CCK1-R/Panc-1 cells (M&M 2.2.1) were also preincubated with two SSH1 inhibitors, D3 (25 μM, 1 h) ([Li et al., 2015]) or SE (50 μM, 3 h for acini; 24 h for CCK1-R/Panc-1 cells) ([Lee et al., 2017]). […] After sonication, lysates were centrifuged at 10,000×g for 15 min at 4°C and protein concentration was measured using the Bio-Rad protein assay reagent. […]\nWestern blotting and immunoprecipitation were performed as described previously ([Ramos-Alvarez and Jensen, 2018]). […] The intensity of the protein bands was measured using GeneTools software from Syngene, which were assessed in the linear detection range. […]\nFIGURE 3 Effect of two SSH1 inhibitors, D3 and SE (A–C), or SSH1 siRNA (D), on the ability of CCK-8 (0.3 and 100 nM) to activate LIMK and cofilin in pancreatic acini (A/B) and activate cofilin in CCK1-R/Panc-1 cells (C/D). […] Western blots were analyzed using anti-pS3 cofilin and anti-pT508 […], and the knockdown effect of SSH1 was confirmed by Western blots using SSH1 (C-term) antibody. Bands were visualized using chemiluminescence and quantified by densitometry. […] Results are expressed as % of basal stimulation of the control group. *, p < 0.05 compared to the control group; ∞, p < 0.05 compared to stimulants without inhibitors. […]"}}, "note": "Like-named read-outs stand apart in the source and are kept apart here.", "data": [{"compound": "CC(=O)O[C@H]1C(=O)[C@@]2(C)[C@H]([C@H](OC(=O)c3ccccc3)[C@]3(O)C[C@H](OC(=O)[C@H](O)[C@@H](NC(=O)c4ccccc4)c4ccccc4)C(C)=C1C3(C)C)[C@]1(OC(C)=O)CO[C@@H]1C[C@@H]2O", "note": "[Paclitaxel]", "values": [{"measurement": "inhibition at 5 µM", "setting": "[1]; CCK-8 0.3 and 100 nM 3 min, read-out: inhibition of CCK-8-mediated p42/44 phosphorylation", "value": "31 to 41", "unit": "%"}, {"measurement": "inhibition at 5 µM", "setting": "[1]; TPA 1 µM 5 min, read-out: inhibition of TPA-mediated p42/44 phosphorylation", "value": "27 to 30", "unit": "%"}]}, {"compound": "C=C1[C@@H](C)[C@H]2[C@H](Cc3ccccc3)NC(=O)[C@]23[C@H](OC(C)=O)/C=C/[C@@](C)(O)C(=O)[C@@H](C)C/C=C/[C@H]3[C@@H]1O", "note": "[Cytochalasin D]", "values": [{"measurement": "effect on cell migration", "setting": "epithelial cells", "value": "completely blocked cell migration"}]}, {"compound": "COOH-terminal octapeptide of cholecystokinin [CCK-8]", "values": [{"measurement": "effect on cofilin phosphorylation in CCK1-R/Panc-1 cells", "setting": "[2]", "value": "caused rapidly dephosphorylation of cofilin"}]}]}
